target: T1, Cdc7 (BEV coexpressed huCDC7/DBF4) (Homo sapiens, UniProt O00311); test: Cdc7 enzyme inhibition assay ([33P]ATP, biotinylated peptide substrate, FlashPlate); assay type: biochemical; details: not given
T1 construct: made in house; host or cells: BEV (baculovirus expression vector) co-expression; insect cells are implied but no cell line is named
Description: Cdc7 (BEV coexpressed huCDC7/DBF4) is prepared internally. Cdc7 assays are conducted as follows with final concentrations as listed. […] Reactions are quenched after 1 hr by the addition of 90 μL stop buffer (50 mM EDTA, 2M NaCl). […] (Ki) for exemplary compounds.

T1 sequence (O00311 whole entry): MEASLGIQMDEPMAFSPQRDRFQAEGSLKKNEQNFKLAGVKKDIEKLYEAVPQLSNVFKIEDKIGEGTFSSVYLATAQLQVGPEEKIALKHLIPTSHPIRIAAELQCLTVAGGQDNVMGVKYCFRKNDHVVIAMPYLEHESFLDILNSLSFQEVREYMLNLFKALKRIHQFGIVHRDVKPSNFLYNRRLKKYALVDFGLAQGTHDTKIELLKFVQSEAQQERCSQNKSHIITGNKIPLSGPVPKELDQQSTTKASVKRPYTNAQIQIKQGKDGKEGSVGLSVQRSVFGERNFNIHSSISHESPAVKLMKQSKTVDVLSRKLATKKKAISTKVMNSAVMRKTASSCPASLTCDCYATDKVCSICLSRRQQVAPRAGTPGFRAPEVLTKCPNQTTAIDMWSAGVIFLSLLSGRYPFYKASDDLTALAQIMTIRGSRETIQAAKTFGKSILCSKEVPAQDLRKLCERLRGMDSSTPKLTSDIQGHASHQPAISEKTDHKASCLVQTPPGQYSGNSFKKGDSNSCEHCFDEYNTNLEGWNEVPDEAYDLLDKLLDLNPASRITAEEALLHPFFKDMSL
T1 sequence (Q9UBU7 whole entry partner): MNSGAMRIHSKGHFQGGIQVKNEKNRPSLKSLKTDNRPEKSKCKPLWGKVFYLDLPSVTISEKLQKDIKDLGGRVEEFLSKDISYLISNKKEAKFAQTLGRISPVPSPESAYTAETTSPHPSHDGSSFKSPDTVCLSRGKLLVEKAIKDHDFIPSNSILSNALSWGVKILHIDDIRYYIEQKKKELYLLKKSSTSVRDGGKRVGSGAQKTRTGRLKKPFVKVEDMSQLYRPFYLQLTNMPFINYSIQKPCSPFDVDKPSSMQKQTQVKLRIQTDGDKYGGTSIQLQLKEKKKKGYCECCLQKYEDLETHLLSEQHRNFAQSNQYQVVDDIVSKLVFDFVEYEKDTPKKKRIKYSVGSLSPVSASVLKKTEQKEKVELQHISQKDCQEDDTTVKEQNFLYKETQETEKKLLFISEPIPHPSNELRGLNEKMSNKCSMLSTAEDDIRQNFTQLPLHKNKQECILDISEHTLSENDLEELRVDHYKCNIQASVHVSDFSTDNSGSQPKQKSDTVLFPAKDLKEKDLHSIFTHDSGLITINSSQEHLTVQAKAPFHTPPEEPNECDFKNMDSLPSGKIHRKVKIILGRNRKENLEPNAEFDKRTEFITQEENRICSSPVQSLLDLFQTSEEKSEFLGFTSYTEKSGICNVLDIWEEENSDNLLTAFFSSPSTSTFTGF

Row | Compound | Ki [nM]
1 | Clc1cc(-c2c[nH]c3ncccc23)cc(NCc2ccccc2)n1 [Example 2, N-Benzyl-6-chloro-4-(1H-pyrrolo[2,3-b]pyridin-3-yl)pyridin-2-amine] | < 10
2 | CN(Cc1ccccc1)c1cc(-c2c[nH]c3ncccc23)cc(Cl)n1 [Example 5, N-benzyl-6-chloro-N-methyl-4-(1H-pyrrolo[2,3-b]pyridin-3-yl)pyridin-2-amine] | < 10
3 | Cc1cccc(-c2cc(-c3c[nH]c4ncccc34)cc(Cl)n2)c1C [Example 7, 3-[2-chloro-6-(2,3-dimethylphenyl)pyridin-4-yl]-1H-pyrrolo[2,3-b]pyridine] | 10 to 100
4 | COCCN(CCOC)c1cc(-c2c[nH]c3ncccc23)cc(Cl)n1 [Example 12, 6-chloro-N,N-bis(2-methoxyethyl)-4-(1H-pyrrolo[2,3-b]pyridin-3-yl)pyridin-2-amine] | 10 to 100
5 | OCCCCNc1cc(-c2c[nH]c3ncccc23)cc(Cl)n1 [Example 19, 4-{[6-chloro-4-(1H-pyrrolo[2,3-b]pyridin-3-yl)pyridin-2-yl]amino}butan-1-ol] | < 10
6 | CC(C)(CO)CCCNc1cc(-c2c[nH]c3ncccc23)cc(Cl)n1 [Example 20] | < 10
7 | CS(=O)(=O)NC1CCC(Nc2cc(-c3c[nH]c4ncccc34)cc(Cl)n2)CC1 (stereo not drawn) [Example 21, N-(4-{[6-chloro-4-(1H-pyrrolo[2,3-b]pyridin-3-yl)pyridin-2-yl]amino}cyclohexyl)methanesulfonamide] | < 10
8 | CC(=O)NC1CCC(Nc2cc(-c3c[nH]c4ncccc34)cc(Cl)n2)CC1 (stereo not drawn) [Example 22, N-(4-{[6-chloro-4-(1H-pyrrolo[2,3-b]pyridin-3-yl)pyridin-2-yl]-amino}cyclohexyl)acetamide] | < 10
9 | CS(=O)(=O)NC1CCCC(Nc2cc(-c3c[nH]c4ncccc34)cc(Cl)n2)C1 (stereo not drawn) [Example 24, N-(3-{[6-chloro-4-(1H-pyrrolo[2,3-b]pyridin-3-yl)pyridin-2-yl]-amino}cyclohexyl)methanesulfonamide] | < 10
10 | Clc1cc(-c2c[nH]c3ncccc23)cc(NCc2cccnc2)n1 [Example 27, 6-chloro-N-(pyridin-3-ylmethyl)-4-(1H-pyrrolo[2,3-b]pyridin-3-yl)pyridin-2-amine] | < 10
11 | Cc1cccc(CNc2cc(-c3c[nH]c4ncccc34)cc(Cl)n2)c1C [Example 30, 6-chloro-N-(2,3-dimethylbenzyl)-4-(1H-pyrrolo[2,3-b]pyridin-3-yl)pyridin-2-amine] | 10 to 100
12 | Clc1cc(-c2c[nH]c3ncccc23)cc(NCc2ccncc2)n1 [Example 31, 6-chloro-N-(pyridin-4-ylmethyl)-4-(1H-pyrrolo[2,3-b]pyridin-3-yl)pyridin-2-amine] | 10 to 100
13 | Fc1cc(Cl)ccc1CNc1cc(-c2c[nH]c3ncccc23)cc(Cl)n1 [Example 36, 6-chloro-N-(4-chloro-2-fluorobenzyl)-4-(1H-pyrrolo[2,3-b]pyridin-3-yl)pyridin-2-amine] | 10 to 100
14 | Clc1cc(-c2c[nH]c3ncccc23)cc(NCc2cccnc2Oc2cccnc2)n1 [Example 37, 6-chloro-N-{[2-(pyridin-3-yloxy)pyridin-3-yl]methyl}-4-(1H-pyrrolo[2,3-b]pyridin-3-yl)pyridin-2-amine] | 10 to 100

Now from value to molecule:

Row | Ki [nM] | Compound
15 | < 10 | Clc1cc(-c2c[nH]c3ncccc23)cc(NC2CCCCC2)n1 [Example 1, 6-Chloro-N-cyclohexyl-4-(1H-pyrrolo[2,3-b]pyridin-3-yl)pyridin-2-amine]
16 | < 10 | C=CCNc1cc(-c2c[nH]c3ncccc23)cc(Cl)n1 [Example 3, N-Allyl-6-chloro-4-(1H-pyrrolo[2,3-b]pyridin-3-yl)pyridin-2-amine]
17 | 10 to 100 | Clc1cc(-c2c[nH]c3ncccc23)cc(N2CCCCC2)n1 [Example 4, 3-(2-chloro-6-piperidin-1-ylpyridin-4-yl)-1H-pyrrolo[2,3-b]pyridine]
18 | 10 to 100 | FC1(F)CN(c2cc(-c3c[nH]c4ncccc34)cc(Cl)n2)C1 [Example 6, 3-[2-chloro-6-(3,3-difluoroazetidin-1-yl)pyridin-4-yl]-1-1H-pyrrolo[2,3-b]pyridine]
19 | < 10 | Clc1cc(-c2c[nH]c3ncccc23)cc(NC2CCOCC2)n1 [Example 8, 6-chloro-4-(1H-pyrrolo[2,3-b]pyridin-3-yl)-N-tetrahydro-2H-pyran-4-ylpyridin-2-amine]
20 | < 10 | OC1CCCCC1Nc1cc(-c2c[nH]c3ncccc23)cc(Cl)n1 (stereo not drawn) [Example 9, 2-{[6-chloro-4-(1H-pyrrolo[2,3-b]pyridin-3-yl)pyridin-2-yl]amino}cyclohexanol]
21 | < 10 | COCCNc1cc(-c2c[nH]c3ncccc23)cc(Cl)n1 [Example 10, 6-chloro-N-(2-methoxyethyl)-4-(1H-pyrrolo[2,3-b]pyridin-3-yl)pyridin-2-amine]
22 | < 10 | OCCNc1cc(-c2c[nH]c3ncccc23)cc(Cl)n1 [Example 11, 2-{[6-chloro-4-(1H-pyrrolo[2,3-b]pyridin-3-yl)pyridin-2-yl]amino}ethanol]
23 | < 10 | Clc1cc(-c2c[nH]c3ncccc23)cc(NCC2CCCO2)n1 (stereo not drawn) [Example 13, 6-chloro-4-(1H-pyrrolo[2,3-b]pyridin-3-yl)-N-(tetrahydrofuran-2-ylmethyl)pyridin-2-amine]
24 | < 10 | O[C@H]1CC[C@H](Nc2cc(-c3c[nH]c4ncccc34)cc(Cl)n2)CC1 [Example 14, Trans 4-{[6-chloro-4-(1H-pyrrolo[2,3-b]pyridin-3-yl)pyridin-2-yl]amino}cyclohexanol]
25 | < 10 | NC1CCC(Nc2cc(-c3c[nH]c4ncccc34)cc(Cl)n2)CC1 (stereo not drawn) [Example 15, N-[6-chloro-4-(1H-pyrrolo[2,3-b]pyridin-3-yl)pyridin-2-yl]cyclohexane-1,4-diamine]
26 | 10 to 100 | COC1CCCCC1Nc1cc(-c2c[nH]c3ncccc23)cc(Cl)n1 (stereo not drawn) [Example 16, 6-chloro-N-(2-methoxycyclohexyl)-4-(1H-pyrrolo[2,3-b]pyridin-3-yl)pyridin-2-amine]
27 | < 10 | NC1CCCCC1Nc1cc(-c2c[nH]c3ncccc23)cc(Cl)n1 (stereo not drawn) [Example 17, N-[6-chloro-4-(1H-pyrrolo[2,3-b]pyridin-3-yl)pyridin-2-yl]cyclohexane-1,2-diamine]
28 | < 10 | CC(C)(O)CNc1cc(-c2c[nH]c3ncccc23)cc(Cl)n1 [Example 18, 1-{[6-chloro-4-(1H-pyrrolo[2,3-b]pyridin-3-yl)pyridin-2-yl]amino}-2-methylpropan-2-ol]
29 | < 10 | NC1CCCC(Nc2cc(-c3c[nH]c4ncccc34)cc(Cl)n2)C1 (stereo not drawn) [Example 23, N-[6-chloro-4-(1H-pyrrolo[2,3-b]pyridin-3-yl)pyridin-2-yl]cyclohexane-1,3-diamine]
30 | < 10 | Clc1cc(-c2c[nH]c3ncccc23)cc(NCC2CCOCC2)n1 [Example 25, 6-chloro-4-(1H-pyrrolo[2,3-b]pyridin-3-yl)-N-(tetrahydro-2H-pyran-4-ylmethyl)pyridin-2-amine]
31 | < 10 | OC1CCCC(Nc2cc(-c3c[nH]c4ncccc34)cc(Cl)n2)C1 (stereo not drawn) [Example 26, 3-{[6-chloro-4-(1H-pyrrolo[2,3-b]pyridin-3-yl)pyridin-2-yl]amino}cyclohexanol]
32 | 10 to 100 | Clc1cc(-c2c[nH]c3ncccc23)cc(NCC2CCCOC2)n1 (stereo not drawn) [Example 28, 6-chloro-4-(1H-pyrrolo[2,3-b]pyridin-3-yl)-N-(tetrahydro-2H-pyran-3-ylmethyl)pyridin-2-amine]
33 | < 10 | Clc1cc(-c2c[nH]c3ncccc23)cc(NCC2CCNC2)n1 (stereo not drawn) [Example 29, 6-chloro-N-(pyrrolidin-3-ylmethyl)-4-(1H-pyrrolo[2,3-b]pyridin-3-yl)pyridin-2-amine]
34 | 10 to 100 | Clc1cc(-c2c[nH]c3ncccc23)cc(NCC2CCCCO2)n1 (stereo not drawn) [Example 32, 6-chloro-4-(1H-pyrrolo[2,3-b]pyridin-3-yl)-N-(tetrahydro-2H-pyran-2-ylmethyl)pyridin-2-amine]
35 | 10 to 100 | Clc1cc(-c2c[nH]c3ncccc23)cc(NC2CCNCC2)n1 [Example 33, 6-chloro-N-piperidin-4-yl-4-(1H-pyrrolo[2,3-b]pyridin-3-yl)pyridin-2-amine]
36 | 10 to 100 | COC1CCC(Nc2cc(-c3c[nH]c4ncccc34)cc(Cl)n2)CC1 (stereo not drawn) [Example 34, 6-chloro-N-(4-methoxycyclohexyl)-4-(1H-pyrrolo[2,3-b]pyridin-3-yl)pyridin-2-amine]
37 | 10 to 100 | CC(=O)NC1CCCC(Nc2cc(-c3c[nH]c4ncccc34)cc(Cl)n2)C1 (stereo not drawn) [Example 35, N-(3-{[6-chloro-4-(1H-pyrrolo[2,3-b]pyridin-3-yl)pyridin-2-yl]amino}cyclohexyl)acetamide]
38 | 10 to 100 | Clc1cc(-c2c[nH]c3ncccc23)cc(NCC2CCCNC2)n1 (stereo not drawn) [Example 38, 6-chloro-N-(piperidin-3-ylmethyl)-4-(1H-pyrrolo[2,3-b]pyridin-3-yl)pyridin-2-amine]

same assay, conditions: Table 2; Comparative Example lacking the chloro substituent versus the chloro Example

Row | Compound | Ki ratio comparisons (Ki Comparative Example/Ki Example)
39 | N#Cc1cc(-c2c[nH]c3ncccc23)cc(N[C@H]2CC[C@H](O)CC2)n1 [Comparative Example 10, 6-[(trans-4-hydroxycyclohexyl)amino]-4-(1H-pyrrolo[2,3-b]pyridin-3-yl)pyridine-2-carbonitrile, reference compound] | 10
40 | NC(=O)c1cc(-c2c[nH]c3ncccc23)cc(N[C@H]2CC[C@H](O)CC2)n1 [Comparative Example 11, 6-[(trans-4-hydroxycyclohexyl)amino]-4-(1H-pyrrolo[2,3-b]pyridin-3-yl)pyridine-2-carboxamide, reference compound] | 134
41 | c1cnc2[nH]cc(-c3ccnc(NC4CCCCC4)n3)c2c1 [Comparative Example 12, N-cyclohexyl-4-(1H-pyrrolo[2,3-b]pyridin-3-yl)pyrimidin-2-amine, reference compound] | 3
42 | N[C@H]1CC[C@H](Nc2nccc(-c3c[nH]c4ncccc34)n2)CC1 [Comparative Example 13, Trans-N-[4-(1H-pyrrolo[2,3-b]pyridin-3-yl)pyrimidin-2-yl]cyclohexane-1,4-diamine, reference compound] | 12
